Assay results reported in PMC11876601 (Molecular Systems Biology, 2025).
Like-named read-outs stand apart in the source and are kept apart here.

Legend:
PKN2 = details: cited from earlier work
SYK = details: cited from earlier work
MARK3 = details: cited from earlier work
AsPC-1 cells = experiment: Drug combination viability screen (ATPlite, 72 h); type: cell-based, human; parameters: key to AUC: AUC of dose-response curve; AUC∆ = AUChypothetical − AUCexperimental; Curve top / Curve bottom / Curve effect size: scale not given here; details: for Library drug only (ratio): cell viability (library drug/vehicle); for Library drug + GEM low (ratio) / Library drug + GEM high (ratio): cell viability vs vehicle; for Bliss_Library drug + GEM low (ratio) / Bliss_Library drug + GEM high (ratio): hypothetical viability, Bliss model; for EC50: Homo sapiens;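 on AUC: area under vehicle-normalized viability curve scaled 0 to 100 percent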;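 on Curve bottom: fraction of vehicle control viability from four-parameter log-logistic fit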
Protocol: Cell viability was assessed by measuring ATP levels to indicate metabolic activity.
Afterward, small amounts were transferred to 384-well intermediate plates (Greiner Bio-One GmbH, Germany). […] For drug combination screening, 1000 to 5000 cells were seeded into 384-well plates (CulturPlate™, Perkin Elmer, MA, USA) using a Multidrop™ Combi Reagent Dispenser (Thermo Scientific, MA, USA) in 50 µl medium per well 24 h prior to drug treatment (seeding densities see Appendix Table S1). […] The final DMSO concentration in each well was 0.2%. […] Eight wells per plate without library drug served as negative controls, and sixteen wells per plate containing 5 µM Staurosporine served as positive controls. Control plates not containing any drug were used to correct for incubation effects, and data quality was assessed by calculation of Z-prime of positive and negative controls according to1 Z-prime=1−3SDpos+3SDneg/[…] where SD is the standard deviation. […] Dose–response curves from the experimental and hypothetical data were compared, and shifts in AUC were used to describe combination effects (AUC∆ = AUChypothetical − AUCexperimental). […] Only combinations with R^2 > 0.8 in both conditions were considered in the synergy analysis.

[1] = PKN2, 5 cell line mix lysate, Kinobeads ε, ref Reinecke et al. (2023)
[2] = 5 cell line mix lysate, Kinobeads ε, ref Reinecke et al. (2023)
[3] = MARK3, 5 cell line mix lysate, Kinobeads ε, ref Reinecke et al. (2023)
[4] = AsPC-1, GEM high_Bliss (hypothetical data)
[5] = AsPC-1, GEM low_Bliss (hypothetical data)
[6] = AsPC-1, library drug 123.46 nM + GEM 10 nM
[7] = AsPC-1, library drug 123.46 nM + GEM 30 nM
[8] = AsPC-1, library drug 370.37 nM + GEM 10 nM
[9] = AsPC-1, library drug 370.37 nM + GEM 30 nM
[10] = AsPC-1, library drug 1111.11 nM + GEM 10 nM
[11] = AsPC-1, library drug 1111.11 nM + GEM 30 nM
[12] = AsPC-1, library drug 3333.33 nM + GEM 10 nM
[13] = AsPC-1, library drug 3333.33 nM + GEM 30 nM
[14] = AsPC-1, library drug 10000 nM + GEM 10 nM
[15] = AsPC-1, library drug 10000 nM + GEM 30 nM
[16] = ASPC1, read-out: pEC50 (converted)

## COc1cc(N2CCC(N3CCN(C)CC3)CC2)ccc1Nc1ncc(Cl)c(Nc2ccccc2P(C)(C)=O)n1 [Brigatinib]
PKN2; [1]
  EC50: 1040 nM
  pKDapp: 6.07
PKN2; PKN2, 5 cell line mix lysate, Kinobeads ε, ref Reinecke et al. (2023), read-out: KDapp
  Kd: 852 nM
SYK; 5 cell line mix lysate, Kinobeads ε, ref Reinecke et al. (2023), read-out: KDapp
  Kd: 1570 nM
SYK; [2]
  EC50: 1870 nM
  pKDapp: 5.81
MARK3; [3]
  EC50: 250 nM
  pKDapp: 6.71
MARK3; MARK3, 5 cell line mix lysate, Kinobeads ε, ref Reinecke et al. (2023), read-out: KDapp
  Kd: 193 nM

## CCN1CCN(Cc2ccc(Nc3ncc(F)c(-c4cc(F)c5nc(C)n(C(C)C)c5c4)n3)nc2)CC1 [Abemaciclib]
AsPC-1 cells; AsPC-1, GEM high
  AUC: 87.77%
  Curve bottom: 0.63
  Curve effect size: 0.23
  Curve slope: 0.52
  Curve top: 0.85
AsPC-1 cells; [4]
  AUC: 82.66%
  Curve bottom: -0.27
  Curve effect size: 0.57
  Curve slope: 0.36
  Curve top: 0.8
AsPC-1 cells; AsPC-1, GEM low
  AUC: 89.92%
  Curve bottom: 0.62
  Curve effect size: 0.28
  Curve slope: 1.21
  Curve top: 0.86
AsPC-1 cells; [5]
  AUC: 82.59%
  Curve bottom: -0.23
  Curve effect size: 0.57
  Curve slope: 0.36
  Curve top: 0.87
AsPC-1 cells; AsPC-1, library drug 123.46 nM
  Library drug only (ratio): 0.76
AsPC-1 cells; AsPC-1, library drug 370.37 nM
  Library drug only (ratio): 0.72
AsPC-1 cells; AsPC-1, library drug 1111.11 nM
  Library drug only (ratio): 0.63
AsPC-1 cells; AsPC-1, library drug 3333.33 nM
  Library drug only (ratio): 0.64
AsPC-1 cells; AsPC-1, library drug 10000 nM
  Library drug only (ratio): 0.33
AsPC-1 cells; [6]
  Library drug + GEM low (ratio): 0.80
  Bliss_Library drug + GEM low (ratio): 0.69
AsPC-1 cells; [7]
  Library drug + GEM high (ratio): 0.73
  Bliss_Library drug + GEM high (ratio): 0.63
AsPC-1 cells; [8]
  Library drug + GEM low (ratio): 0.68
  Bliss_Library drug + GEM low (ratio): 0.65
AsPC-1 cells; [9]
  Library drug + GEM high (ratio): 0.65
  Bliss_Library drug + GEM high (ratio): 0.60
AsPC-1 cells; [10]
  Library drug + GEM low (ratio): 0.63
  Bliss_Library drug + GEM low (ratio): 0.57
AsPC-1 cells; [11]
  Library drug + GEM high (ratio): 0.65
  Bliss_Library drug + GEM high (ratio): 0.52
AsPC-1 cells; [12]
  Library drug + GEM low (ratio): 0.67
  Bliss_Library drug + GEM low (ratio): 0.58
AsPC-1 cells; [13]
  Library drug + GEM high (ratio): 0.67
  Bliss_Library drug + GEM high (ratio): 0.53
AsPC-1 cells; [14]
  Library drug + GEM low (ratio): 0.59
  Bliss_Library drug + GEM low (ratio): 0.30
AsPC-1 cells; [15]
  Library drug + GEM high (ratio): 0.64
  Bliss_Library drug + GEM high (ratio): 0.27
AsPC-1 cells; AsPC-1, luminescence signal, library drug 123.46 nM
  Library drug only (raw): 1429160
AsPC-1 cells; AsPC-1, luminescence signal, library drug 123.46 nM + GEM 10 nM
  Library drug + GEM low (raw): 1506080
AsPC-1 cells; AsPC-1, luminescence signal, library drug 123.46 nM + GEM 30 nM
  Library drug + GEM high (raw): 1369120
AsPC-1 cells; AsPC-1, luminescence signal, library drug 370.37 nM
  Library drug only (raw): 1356440
AsPC-1 cells; AsPC-1, luminescence signal, library drug 370.37 nM + GEM 10 nM
  Library drug + GEM low (raw): 1276520
AsPC-1 cells; AsPC-1, luminescence signal, library drug 370.37 nM + GEM 30 nM
  Library drug + GEM high (raw): 1223760
AsPC-1 cells; AsPC-1, luminescence signal, library drug 1111.11 nM
  Library drug only (raw): 1177560
AsPC-1 cells; AsPC-1, luminescence signal, library drug 1111.11 nM + GEM 10 nM
  Library drug + GEM low (raw): 1187000
AsPC-1 cells; AsPC-1, luminescence signal, library drug 1111.11 nM + GEM 30 nM
  Library drug + GEM high (raw): 1214720
AsPC-1 cells; AsPC-1, luminescence signal, library drug 3333.33 nM
  Library drug only (raw): 1196040
AsPC-1 cells; AsPC-1, luminescence signal, library drug 3333.33 nM + GEM 10 nM
  Library drug + GEM low (raw): 1253360
AsPC-1 cells; AsPC-1, luminescence signal, library drug 3333.33 nM + GEM 30 nM
  Library drug + GEM high (raw): 1251960
AsPC-1 cells; AsPC-1, luminescence signal, library drug 10000 nM
  Library drug only (raw): 618520
AsPC-1 cells; AsPC-1, luminescence signal, library drug 10000 nM + GEM 10 nM
  Library drug + GEM low (raw): 1109040
AsPC-1 cells; AsPC-1, luminescence signal, library drug 10000 nM + GEM 30 nM
  Library drug + GEM high (raw): 1201080
AsPC-1 cells; AsPC-1, no GEM (single drug)
  AUC: 82.59%
  Curve bottom: -0.27
  Curve effect size: 0.57
  Curve slope: 0.36
  Curve top: 0.97
AsPC-1 cells; ASPC1, read-out: EC50
  EC50: 16500 nM
AsPC-1 cells; [16]
  EC50: 16600 nM

## Nc1ccn([C@@H]2O[C@H](CO)[C@@H](O)C2(F)F)c(=O)n1 [GEM, Gemcitabine]
AsPC-1 cells; AsPC-1, R1, 13.72 nM
  Reponse: 1567840
AsPC-1 cells; AsPC-1, R1, 41.15 nM
  Reponse: 1226120
AsPC-1 cells; AsPC-1, R1, 123.46 nM
  Reponse: 1025760
AsPC-1 cells; AsPC-1, R1, 370.37 nM
  Reponse: 921880
AsPC-1 cells; AsPC-1, R1, 1111.11 nM
  Reponse: 872680
AsPC-1 cells; AsPC-1, R1, 3333.33 nM
  Reponse: 849760
AsPC-1 cells; AsPC-1, R1, 10000 nM
  Reponse: 784080
AsPC-1 cells; AsPC-1, R2, 13.72 nM
  Reponse: 1654800
AsPC-1 cells; AsPC-1, R2, 41.15 nM
  Reponse: 1220360
AsPC-1 cells; AsPC-1, R2, 123.46 nM
  Reponse: 984000
AsPC-1 cells; AsPC-1, R2, 370.37 nM
  Reponse: 972200
AsPC-1 cells; AsPC-1, R2, 1111.11 nM
  Reponse: 963400
AsPC-1 cells; AsPC-1, R2, 10000 nM
  Reponse: 773560
AsPC-1 cells; AsPC-1, GEM curve fit
  AUC: 70.34
  Curve bottom: 0.46
  Curve effect size: 0.55
  Curve slope: 1.15
  Curve top: 1.04
AsPC-1 cells; AsPC-1, luminescence signal, plate mean, GEM 10 nM
  GEM low only (raw): 1700020
AsPC-1 cells; AsPC-1, luminescence signal, plate mean, GEM 30 nM
  GEM high only (raw): 1564215
AsPC-1 cells; ASPC1, read-out: EC50,GEM
  EC50: ≥ 10 nM
AsPC-1 cells; ASPC1, read-out: EC50
  EC50: 27.1 nM
AsPC-1 cells; [16]
  EC50: 26.9 nM
